Laboratory results: patent publication US7892350B2, “Sacrificial agents for fly ash concrete” (Boral Material Technologies Inc., priority 2003, dated 2011)

What was measured:
[1] = Paste air entrainment, Maximum air protocol; conditions: for Air entrained at 66 min: Air 30 (0.0125 wt %)/X/ButOH=1/4/4, X = the labelled sulfonated SA
Method: (§1) Preparation of pastes: Pastes were prepared by pouring 400 g of cementitious powder in the 350-400 g of solution (water and additives) in a vessel (8.4 cm dia,×14.5 cm height) while gently stirring with a spatula; the exact quantity of water depends on the selected W/B ratio (see below); rapid hand mixing was continued for 1 minute, followed by intense stirring at 25° C. during 2 min using a hand-held mixer (BRAUN model MR400). The level of air entrained is dependent on the mode of utilisation of the mixer, namely the height of the mixer from the bottom of the vessel and the length of the mixing stroke; the following protocols were adopted.
(§2) Fluidity measurements: For all air entrainment measurements, the initial fluidity of the paste (without additives) was controlled using the ‘mini-slump’ procedure widely used for paste and grouts. In this protocol, a portion of the paste was transferred into the min-slump cone (a 2¼″ high, 1½″ bottom diameter, ¾″ top diameter cone); excess paste was skimmed-off with a straight; the cone was then raised and the spread diameter of the paste was recorded (average of two measurements). The fluidity is measured at 10 minutes after mixing. The paste is returned to the batch and reserved for subsequent AE measurements. The fluidity of the paste (without SA and AEA) is adjusted by changing the amount of water (water/cementitious ratio) which yields a spread diameter of 115±5 mm. The latter is monitored regularly.
(§3) Air entrainment measurements: For air entrainment measurements, a portion of the paste was transferred to overfill a Plexiglas cylinder (3¾ inches height, 2 inches interior diameter), which was then levelled flush to the top of the cylinder with a straight edge. The mass of the filled cylinder, minus the weight of the empty cylinder, is then recorded and used to calculate the amount of air according to the following formula: […]
(§4) This procedure was carried out at three times at 30 min. intervals (6, 36 and 66 min); the paste was let to stand at rest between measurements, and was stirred gently by hand for one minute prior to the subsequent air entrainment measurements.
Other combinations of air entrainment agents and sacrificial agents were prepared as stock solutions following the procedure outlined above, adjusting the weights of the various components to achieve the desired component ratios.

[2] = Adsorption/precipitation of SA or AEA in 10 wt % aqueous fly ash or cement slurries at pH 12.5; assay type: physicochemical; conditions: initial SA 3 mM
Method: Adsorption/Precipitation of Sacrificial Agents (SA) or Air Entrainment Agents (AEA) in 10 wt % Aqueous Fly Ash Slurries at pH 12.5:
(§5) The pH of the solutions were adjusted to 12.5 with NaOH.
Adsorption/Precipitation in FA or Cement Slurries: In this protocol, aqueous slurries containing 10 wt % FA or cement were prepared as described above, except that in this case, the cement was added directly into a solution of the SA or AEA in the following proportions: 3.0 g cement or FA, and 27 g of 3 mM sacrificial agent, or 27 g of 1050 mg/l AEA; the latter were prepared in the same way as in the precipitation test above. The residual (soluble) SA or AEA content in the solution was also determined by UV or COD.

[3] = Precipitation in slurry extract or leachate; assay type: physicochemical; conditions: pH 12.5, entries in parentheses
Method: as §5
Precipitation in slurry extract or leachate: To perform this test, FA or cement leachate were prepared in advance, by filtering two liters of a 10 wt % FA, or cement, slurry in 0.03N NaOH which had been left to stand under slow agitation for 30 min; 2.5 g of the filtrate solution was mixed with 22.5 g of the SA or AEA solution in a 50 ml polypropylene centrifuge tube; the latter was shaken vigorously in an orbital shaker (Eberbach Corporation) for 30 min at room temperature, centrifuged for 5 min and then the supernatant solution was filtered (0.45 μm). The SA or AEA content of the solution was determined using an Ultraviolet-Visible (UV) spectrometer or by COD (Chemical Oxygen Demand) measurement.
Entries in parentheses: % precipitation when reacted with solutions extracted from the fly ash slurries (Results in Table 5).

[4] = Paste air entrainment, Minimum air protocol
Method: as §1
Minimum air protocol: The BRAUN mixer is positioned at 1.0 inch from the bottom of the mixing vessel and the up-down motion of the mixer is limited to a 1.0 inch displacement; this provided ‘minimum air’ entrained air levels and is later referred to as ‘Minimum air protocol’ (Results reported in Table 6, col. 1 and Table 7).
as §2, §3, §4
Typical mixture compositions for air entrainment measurements in pastes containing a single additive using ‘Minimum air protocol’ (results shown in Table 6, col. 1): […]

O=S(=O)([O-])c1ccc2ccccc2c1.[Na+] [NS, Sodium 2-Naphthalene sulfonate]
Air entrained at 66 min ([1]; 50:50 fly ash B1 (LOI 4.36%):PCA paste): 7 vol %
Air entrained at 66 min ([1]; 50:50 fly ash D (LOI […]):PCA paste): 18 vol %
Air entrained at 66 min ([1]; 50:50 fly ash M2 (LOI 5.34%):PCA paste): 5 vol %
Air entrained ([1]; PCA cement paste, 0.0125% SA or AEA alone, Maximum air protocol): 2 vol %
Air entrained at 66 min ([1]; PCA paste, no fly ash): 13 vol %
Adsorption (wt % Adsorbed) ([2]; 10 wt % PCA cement slurry, Air 30/Air 40 0.105 wt %): 3 wt %
Adsorption (wt % Adsorbed) ([2]; 10 wt % fly ash B1 (LOI 4.36%) slurry, Air 30/Air 40 0.105 wt %): 8 wt %
Adsorption (wt % Adsorbed) ([2]; 10 wt % fly ash C1, class C (LOI 1.62%) slurry, Air 30/Air 40 0.105 wt %): 70 wt %
Adsorption (wt % Adsorbed) ([2]; 10 wt % fly ash C2 (LOI 3.32%) slurry): 5 wt %
Adsorption (wt % Adsorbed) ([2]; 10 wt % fly ash D, class C (LOI […]) slurry, Air 30/Air 40 0.105 wt %): 59 wt %
Adsorption (wt % Adsorbed) ([2]; 10 wt % fly ash M1 (LOI […]) slurry, Air 30/Air 40 0.105 wt %): 11 wt %
Adsorption (wt % Adsorbed) ([2]; 10 wt % fly ash M2 (LOI 5.34%) slurry, Air 30/Air 40 0.105 wt %): 8 wt %
Adsorption (wt % Adsorbed) ([2]; 10 wt % fly ash M3 (LOI 11.33%) slurry, Air 30/Air 40 0.105 wt %): 10 wt %
Adsorption (wt % Adsorbed) ([2]; 10 wt % fly ash N (LOI 0.30%) slurry): 5 wt %
Adsorption (wt % Adsorbed) ([2]; 10 wt % fly ash R (LOI […]) slurry, Air 30/Air 40 0.105 wt %): 24 wt %
Precipitation (wt % precipitated) ([3]; solution extracted from 10 wt % PCA cement slurry): 1 wt %
Precipitation (wt % precipitated) ([3]; solution extracted from 10 wt % fly ash B1 (LOI 4.36%) slurry): 0 wt %
Precipitation (wt % precipitated) ([3]; solution extracted from 10 wt % fly ash C1, class C (LOI 1.62%) slurry): 10 wt %
Precipitation (wt % precipitated) ([3]; solution extracted from 10 wt % fly ash C2 (LOI 3.32%) slurry): 0 wt %
Precipitation (wt % precipitated) ([3]; solution extracted from 10 wt % fly ash D, class C (LOI […]) slurry): 1 wt %
Precipitation (wt % precipitated) ([3]; solution extracted from 10 wt % fly ash M1 (LOI […]) slurry): 0 wt %
Precipitation (wt % precipitated) ([3]; solution extracted from 10 wt % fly ash M2 (LOI 5.34%) slurry): 0 wt %
Precipitation (wt % precipitated) ([3]; solution extracted from 10 wt % fly ash M3 (LOI 11.33%) slurry): 0 wt %
Precipitation (wt % precipitated) ([3]; solution extracted from 10 wt % fly ash N (LOI 0.30%) slurry): 0 wt %
Precipitation (wt % precipitated) ([3]; solution extracted from 10 wt % fly ash R (LOI […]) slurry): 0 wt %
Air entrained ([4]; 50:50 fly ash B1 (LOI 4.36%):PCA paste, 0.1 wt % Air 30 alone or with 0.05 wt % of the SA): 4 vol %
Air entrained ([4]; 50:50 fly ash C1 (LOI 1.62%):PCA paste, 0.1 wt % Air 30 alone or with 0.05 wt % of the SA): 12 vol %
Air entrained ([4]; 50:50 fly ash D (LOI […]):PCA paste, 0.1 wt % Air 30 alone or with 0.05 wt % of the SA): 6 vol %
Air entrained ([4]; 50:50 fly ash M1 (LOI […]):PCA paste, 0.1 wt % Air 30 alone or with 0.05 wt % of the SA): 4 vol %
Air entrained ([4]; 50:50 fly ash M2 (LOI 5.34%):PCA paste, 0.1 wt % Air 30 alone or with 0.05 wt % of the SA): 3 vol %
Air entrained ([4]; 50:50 fly ash M3 (LOI 11.33%):PCA paste, 0.1 wt % Air 30 alone or with 0.05 wt % of the SA): 4 vol %
Air entrained ([4]; 50:50 fly ash R (LOI […]):PCA paste, 0.1 wt % Air 30 alone or with 0.05 wt % of the SA): 6 vol %
Air entrained ([4]; PCA cement paste, 0.1% SA or AEA alone, Minimum air protocol): 0 vol %
Average of air entrained ([4]; over the fly ash:PCA pastes of Table 7, 0.1 wt % Air 30 alone or with 0.05 wt % of the SA): 5%
